Results on 16 compounds are retold here after US20240228468A1, “N-(6-((OCTAHYDROCYCLOPENTA[C]PYRROL-5-YI)AMINO)PYRIDAZIN-3-YL)PHENYL)CARBOXAMIDE AND (6- ((OCTAHYDROCYCLOPENTA[C]PYRROL-5-YL)AMINO)PYRIDAZIN-3-YL)BENZAMIDE DERIVATIVES AS MACHR M4 ANTAGONISTS FOR THE TREATMENT OF NEURODEGENERATIVE DISORDERS” (Vanderbilt University, priority 2021, published 2024).

pIC50: −log10 of the molar value. Like-named read-outs stand apart in the source and are kept apart here.

The assay deals with T1, Human M4 (Homo sapiens, UniProt P08173).
T1 construct: expressed in transfected cells; host or cells: CHO-K1 (ATCC), co-transfected with chimeric G protein Gqi5
T1 sequence (P08173 1-479): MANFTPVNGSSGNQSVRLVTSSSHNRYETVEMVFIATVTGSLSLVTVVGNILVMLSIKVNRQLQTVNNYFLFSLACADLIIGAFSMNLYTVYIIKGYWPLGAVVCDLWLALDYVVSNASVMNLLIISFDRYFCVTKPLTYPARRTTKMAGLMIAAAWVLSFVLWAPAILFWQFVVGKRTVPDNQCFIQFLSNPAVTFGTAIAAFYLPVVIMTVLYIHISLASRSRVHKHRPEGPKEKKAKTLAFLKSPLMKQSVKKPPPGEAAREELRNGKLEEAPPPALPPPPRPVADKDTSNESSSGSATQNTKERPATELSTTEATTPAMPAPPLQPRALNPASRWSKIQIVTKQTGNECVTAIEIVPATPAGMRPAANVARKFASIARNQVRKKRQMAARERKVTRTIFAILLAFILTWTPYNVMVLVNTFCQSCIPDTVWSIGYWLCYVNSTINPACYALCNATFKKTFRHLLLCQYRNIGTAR
The assay can be described thus: mAChR M4 cell-based functional assay (calcium flux, antagonism of EC80 acetylcholine response). The settings on record: for pIC50: concentration-dependent decrease of the response elicited by an EC80 concentration of acetylcholine. The method, then:
Human or rat M4 cDNA, along with the chimeric G protein Gqi5, were transfected into Chinese hamster ovary (CHO-K1) cells purchased from the American Type Culture Collection using Lipofectamine2000. M4/Gqi5/CHO cells were grown in Ham's F-12 medium containing 10% heat-inactivated fetal bovine serum (FBS), 20 mM HEPES, 500 μg/mL G418 sulfate, and 200 μg/mL Hygromycin B.
For high throughput measurement of agonist-evoked increases in intracellular calcium, CHO-K1 cells stably expressing muscarinic receptors were plated in growth medium lacking G418 and hygromycin at 15,000 cells/20 μL/well in Greiner 384-well black-walled, tissue culture (TC)-treated, clear-bottom plates (VWR). Cells were incubated overnight at 37° C. and 5% CO2. The next day, cells were washed using an ELX 405 (BioTek) with assay buffer; the final volume was then aspirated to 20 μL. Next, 20 μL of a 2.3 μM stock of Fluo-4/acetoxymethyl ester (Invitrogen, Carlsbad, CA), prepared as a 2.3 mM stock in DMSO and mixed in a 1:1 ratio with 10% (w/v) Pluronic F-127 and diluted in assay buffer, was added to the wells and the cell plates were incubated for 50 min at 37° C. and 5% CO2. Dye was removed by washing with the ELX 405 and the final volume was aspirated to 20 μL. Compound master plates were formatted in a 10 point concentration-response curve (CRC) format (1:3 dilutions) in 100% DMSO with a starting concentration of 10 or 1 mM using a BRAVO liquid handler (Agilent). Test compound CRCs were then transferred to daughter plates (240 nL) using the Echo acoustic plate reformatter (Labcyte, Sunnyvale, CA) and then diluted into assay buffer (40 μL) to a 2× stock using a Thermo Fisher Combi (Thermo Fisher Scientific, Waltham, MA).
Calcium flux was measured using the Functional Drug Screening System (FDSS) 6000 or 7000 (Hamamatsu Corporation, Tokyo, Japan) as an increase in the fluorescent static ratio. Compounds were applied to cells (20 μL, 2×) using the automated system of the FDSS at 2 seconds into the protocol and the data were collected at 1 Hz. At 143 s, 10 μL of an EC20 concentration of the muscarinic receptor agonist acetylcholine was added (5×), followed by the addition of 12 μL of an EC80 concentration of acetylcholine at the 268 s time point (5×). Agonist activity was analyzed as a concentration-dependent increase in calcium mobilization upon compound addition. Positive allosteric modulator activity was analyzed as a concentration-dependent increase in the EC20 acetylcholine response. Antagonist activity was analyzed as a concentration-dependent decrease in the EC80 acetylcholine response; for the purposes of the tables herein, an IC50 (inhibitory concentration 50) was calculated as a concentration-dependent decrease of the response elicited by an EC80 concentration of acetylcholine. Concentration-response curves were generated using a four-parameter logistical equation in XLFit curve fitting software (IDBS, Bridgewater, NJ) for Excel (Microsoft, Redmond, WA) or Prism (GraphPad Software, Inc., San Diego, CA) or the Dotmatics software platform (Dotmatics, Bishop's Stortford, UK).
Compounds were synthesized as described above. Activity (IC50 and Emin) was determined in the mAChR M4 cell-based functional assay as described above and the data are shown in Table 2.

[1] abbreviates: M4/Gqi5/CHO-K1 cells, % ACh maximum at 30 μM, read-out: Human M4 Emin (% ACh maximum at 30 μM).
The mark [2] stands for this setting: CHO-K1, read-out: Human M4 Emin (% ACh maximum at 30 μM).

Regarding `CNC(=O)c1ccccc1-c1ccc(N[C@H]2C[C@@H]3CN(CC4CCOCC4)C[C@@H]3C2)nn1` [Compound A45, N-methyl-2-(6-(((3aR,5s,6aS)-2-((tetrahydro-2H-pyran-4-yl)methyl)octahydrocyclopenta[c]pyrrol-5-yl)amino)pyridazin-3-yl)benzamide], the remaining activity at 30 µM under setting [1] was 6%. Besides, the pIC50 (usually the negative decadic logarithm of the IC50, by convention in mol/L) (M4/Gqi5/CHO-K1 cells) was 6.74.

Consider `[2H]C([2H])([C@H]1CCCCO1)N1C[C@H]2C[C@H](Nc3ccc(-c4cc(F)cc(C(=O)NC)c4)nn3)C[C@H]2C1` [Compound A87, 3-fluoro-N-methyl-5-(6-(((3aR,5s,6aS)-2-(((R)-tetrahydro-2H-pyran-2-yl)methyl-d2)octahydrocyclopenta[c]pyrrol-5-yl)amino)pyridazin-3-yl)benzamide], for which, under setting [1], the remaining activity at 30 µM amounted to 4%. Further, the pIC50 (M4/Gqi5/CHO-K1 cells) was 9.05.

Regarding `O=C(c1ccc(-c2ccc(N[C@H]3C[C@@H]4CN(CC5CCOCC5)C[C@@H]4C3)nn2)cc1)N1CCCC1` [Compound A21, Pyrrolidin-1-yl(4-(6-(((3aR,5s,6aS)-2-((tetrahydro-2H-pyran-4-yl)methyl)octahydrocyclopenta[c]pyrrol-5-yl)amino)pyridazin-3-yl)phenyl)methanone], under setting [2], the remaining activity at 30 µM was determined as 4%. The negative-log IC50 (pIC50) (M4/Gqi5/CHO-K1 cells) is 8.41.

Take `O=C(Nc1cc(F)c(F)c(-c2ccc(N[C@H]3C[C@@H]4CN(CC5CCOCC5)C[C@@H]4C3)nn2)c1)C(F)F` [Compound A15, N-(3,4-Difluoro-5-(6-(((3aR,5s,6aS)-2-((tetrahydro-2H-pyran-4-yl)methyl)octahydrocyclopenta[c]pyrrol-5-yl)amino)pyridazin-3-yl)phenyl)-2,2-difluoroacetamide]: the remaining activity at 30 µM under setting [2] worked out at 4%. The pIC50 (M4/Gqi5/CHO-K1 cells) was 7.82.

For `CN(C)C(=O)c1ccc(-c2ccc(N[C@H]3C[C@@H]4CN(CC5CCOCC5)C[C@@H]4C3)nn2)c(F)c1` [Compound A37, 3-fluoro-N,N-dimethyl-4-(6-(((3aR,5s,6aS)-2-((tetrahydro-2H-pyran-4-yl)methyl)octahydrocyclopenta[c]pyrrol-5-yl)amino)pyridazin-3-yl)benzamide], the remaining activity at 30 µM under setting [1] is 5%. Moreover, where the note is “M4/Gqi5/CHO-K1 cells”, the pIC50 is 7.85.

`[2H]C([2H])(C1CCOCC1)N1C[C@H]2C[C@H](Nc3ccc(-c4cc(C(=O)NC)ccc4F)nn3)C[C@H]2C1` [Compound A69, 4-fluoro-N-methyl-3-(6-(((3aR,5s,6aS)-2-((tetrahydro-2H-pyran-4-yl)methyl-d2)octahydrocyclopenta[c]pyrrol-5-yl)amino)pyridazin-3-yl)benzamide]: under setting [1], the remaining activity at 30 µM came to 5%. The pIC50 (M4/Gqi5/CHO-K1 cells) is 6.92.

For `[2H]C([2H])(C1CCOCC1)N1C[C@H]2C[C@H](Nc3ccc(-c4ccc(NC(=O)C5CC5)cc4)nn3)C[C@H]2C1` [Compound A35, N-(4-(6-(((3aR,5s,6aS)-2-((tetrahydro-2H-pyran-4-yl)methyl-d2)octahydrocyclopenta[c]pyrrol-5-yl)amino)pyridazin-3-yl)phenyl)cyclopropanecarboxamide], the remaining activity at 30 µM under setting [1] was found to be 4%. Moreover, the pIC50 (M4/Gqi5/CHO-K1 cells) is 8.92.

In the case of `[2H]C([2H])([C@@H]1CCCOC1)N1C[C@H]2C[C@H](Nc3ccc(-c4cccc(C(=O)NC)c4)nn3)C[C@H]2C1` [Compound A79, N-methyl-3-(6-(((3aR,5s,6aS)-2-(((S)-tetrahydro-2H-pyran-3-yl)methyl-d2)octahydrocyclopenta[c]pyrrol-5-yl)amino)pyridazin-3-yl)benzamide], the remaining activity at 30 µM under setting [1] turned out to be 5%. Moreover, the pIC50 (M4/Gqi5/CHO-K1 cells) is 7.04.

On to `CC(=O)Nc1ccc(-c2ccc(N[C@H]3C[C@@H]4CN(Cc5cc(C)n(C)n5)C[C@@H]4C3)nn2)cc1` [Compound A5, N-(4-(6-(((3aR,5s,6aS)-2-((1,5-dimethyl-1H-pyrazol-3-yl)methyl)octahydrocyclopenta[c]pyrrol-5-yl)amino)pyridazin-3-yl)phenyl)acetamide], for which, under setting [1], the remaining activity at 30 µM was determined as 10%. Besides, the negative logarithm of the IC50 (pIC50) (M4/Gqi5/CHO-K1 cells) was 5.64.

Take `[2H]C([2H])([C@@H]1CCCOC1)N1C[C@H]2C[C@H](Nc3ccc(-c4cc(F)cc(C(=O)NC)c4)nn3)C[C@H]2C1` [Compound A85, 3-fluoro-N-methyl-5-(6-(((3aR,5s,6aS)-2-(((S)-tetrahydro-2H-pyran-3-yl)methyl-d2)octahydrocyclopenta[c]pyrrol-5-yl)amino)pyridazin-3-yl)benzamide]: the remaining activity at 30 µM under setting [1] was 5%. Moreover, the pIC50 (M4/Gqi5/CHO-K1 cells) is 7.08.

With `[2H]C([2H])(C1CCOC(C)(C)C1)N1C[C@H]2C[C@H](Nc3ccc(-c4cccc(C(=O)NC)c4)nn3)C[C@H]2C1` (stereo partly drawn) [Compound A75, 3-(6-(((3aR,5s,6aS)-2-((2,2-dimethyltetrahydro-2H-pyran-4-yl)methyl-d2)octahydrocyclopenta[c]pyrrol-5-yl)amino)pyridazin-3-yl)-N-methylbenzamide], under setting [1], the remaining activity at 30 µM was 3%. Moreover, the pIC50 (M4/Gqi5/CHO-K1 cells) was 8.47.

In the case of `O=C(NC12CC(C1)C2)c1cc(F)c(F)c(-c2ccc(N[C@H]3C[C@@H]4CN(CC5CCOCC5)C[C@@H]4C3)nn2)c1` [Compound A18, N-(Bicyclo[1.1.1]pentan-1-yl)-3,4-difluoro-5-(6-(((3aR,5s,6aS)-2-((tetrahydro-2H-pyran-4-yl)methyl)octahydrocyclopenta[c]pyrrol-5-yl)amino)pyridazin-3-yl)benzamide], under setting [2], the remaining activity at 30 µM came out at 3%. For the same compound, the negative logarithm of the IC50 (pIC50) (M4/Gqi5/CHO-K1 cells) was 7.57.

As for `[2H]C([2H])(C1CCOCC1)N1C[C@H]2C[C@H](Nc3ccc(-c4cccc(C(=O)NC5CC5)c4)nn3)C[C@H]2C1` [Compound A33, N-cyclopropyl-3-(6-(((3aR,5s,6aS)-2-((tetrahydro-2H-pyran-4-yl)methyl-d2)octahydrocyclopenta[c]pyrrol-5-yl)amino)pyridazin-3-yl)benzamide], the remaining activity at 30 µM under setting [1] was 3%. The pIC50 (M4/Gqi5/CHO-K1 cells) is 7.66.

Take `O=C(NC1CC1)c1ccc(-c2ccc(N[C@H]3C[C@@H]4CN(CC5CCOCC5)C[C@@H]4C3)nn2)cc1` [Compound A27, N-cyclopropyl-4-(6-(((3aR,5s,6aS)-2-((tetrahydro-2H-pyran-4-yl)methyl)octahydrocyclopenta[c]pyrrol-5-yl)amino)pyridazin-3-yl)benzamide]: the remaining activity at 30 µM under setting [1] stood at 3%. In addition, the pIC50 (M4/Gqi5/CHO-K1 cells) was 8.41.

Consider `[2H]C([2H])([2H])NC(=O)c1cccc(-c2ccc(N[C@H]3C[C@@H]4CN(CC5CCOCC5)C[C@@H]4C3)nn2)c1` (single isomer, unassigned) [Compound A47], for which the remaining activity at 30 µM under setting [1] is 4%. The pIC50 (M4/Gqi5/CHO-K1 cells) was 8.00.

As for “N-methyl-3-(6-(((3aR,5s,6aS)-2-(((S)- tetrahydro-2H-pyran-2-yl)methyl- d2)octahydrocyclopenta[c]pyrrol-5- yl)amino)pyridazin-3-yl)benzamide [Compound A80]”, under “M4/Gqi5/CHO-K1 cells, % ACh maximum at 30 μM”, the “Human M4 Emin (% ACh maximum at 30 μM)” value was 4%. In addition, the pIC50 (M4/Gqi5/CHO-K1 cells) was 8.85.
